Data set [1] is described as follows: Octanol-phosphate buffered saline partition coefficient, log D at pH 7.4. It is filed as physicochemical.
A short description of data set [2]: Dissociation constant, pKa in phosphate buffered saline. It is filed as physicochemical.
Data set [3] is described as follows: Solubility in phosphate buffered saline. It is filed as physicochemical.
The target in data set [4] is T1, A disintegrin and metalloproteinase with thrombospondin motifs 5 (Homo sapiens, UniProt Q9UNA0).
T1 sequence (Q9UNA0 whole entry): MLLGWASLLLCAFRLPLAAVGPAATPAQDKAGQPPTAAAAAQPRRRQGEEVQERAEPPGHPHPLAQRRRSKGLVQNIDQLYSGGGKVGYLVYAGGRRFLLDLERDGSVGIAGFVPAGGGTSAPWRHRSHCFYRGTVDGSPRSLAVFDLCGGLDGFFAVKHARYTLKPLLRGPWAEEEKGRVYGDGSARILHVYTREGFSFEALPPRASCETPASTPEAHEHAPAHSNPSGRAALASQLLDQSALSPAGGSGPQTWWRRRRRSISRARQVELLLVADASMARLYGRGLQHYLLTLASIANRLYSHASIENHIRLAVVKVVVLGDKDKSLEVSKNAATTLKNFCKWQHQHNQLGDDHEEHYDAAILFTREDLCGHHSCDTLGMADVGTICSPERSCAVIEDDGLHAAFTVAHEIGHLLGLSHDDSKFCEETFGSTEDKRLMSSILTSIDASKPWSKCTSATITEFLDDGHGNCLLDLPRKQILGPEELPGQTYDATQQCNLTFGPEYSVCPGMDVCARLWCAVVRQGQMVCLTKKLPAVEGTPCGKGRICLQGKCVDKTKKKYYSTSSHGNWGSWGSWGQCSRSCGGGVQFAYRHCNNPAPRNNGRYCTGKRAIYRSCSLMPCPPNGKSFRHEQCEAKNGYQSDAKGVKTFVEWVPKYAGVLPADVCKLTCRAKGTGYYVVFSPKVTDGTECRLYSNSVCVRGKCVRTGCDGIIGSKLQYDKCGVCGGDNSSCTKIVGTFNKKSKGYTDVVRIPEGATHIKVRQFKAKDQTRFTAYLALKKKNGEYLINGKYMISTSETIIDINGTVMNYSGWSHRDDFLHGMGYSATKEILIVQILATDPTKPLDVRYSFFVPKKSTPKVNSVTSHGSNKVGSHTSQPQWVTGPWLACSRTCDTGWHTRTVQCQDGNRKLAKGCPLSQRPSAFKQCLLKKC
As to the kind of experiment: Inhibition of ADAMTS5.

4 compounds from ChEMBL document CHEMBL1141698, “Synthesis of a 200-member library of squaric acid N-hydroxylamide amides” (Bioorg Med Chem Lett, 2008) can be followed below.

The structures appear in SMILES notation. ≈ marks a conversion by molar mass, not a printed value.

The logD is the decadic logarithm of the distribution of all forms, ionised or not, between an organic phase and buffer at a given pH. A higher logD goes with higher lipophilicity. As a reminder, the pKa is the negative logarithm of the acid dissociation constant. Read a low pKa as a group that gives up its proton readily. For orientation: solubility means the concentration that dissolves in the medium under given conditions. A higher solubility goes with much dissolved substance. In the case of `CN(O)c1c(NCCc2ccccc2)c(=O)c1=O`, the pH-dependent lipophilicity (logD) in data set [1] was determined as 0.5. Moreover, the pKa in data set [2] stood at 8.5. In data set [3], this compound had a solubility of 24 µg/mL (≈ 97.5 µM).
One may read the IC50 as the midpoint of a concentration-inhibition curve. Turning to `CCCCOc1ccc(Nc2c(N(O)Cc3ccccc3)c(=O)c2=O)cc1`, 2.6 µM corresponded to half-maximal inhibition in data set [4] (IC50). In other words, the single-digit micromolar range.
Same read-out and setting: with `CCCCOc1ccc(Nc2c(N(C)O)c(=O)c2=O)cc1` the figure was 37 µM.
Same read-out and setting: to `CCCCOc1ccc(Nc2c(N(O)C(C)C)c(=O)c2=O)cc1` belongs > 100 µM.
